Experimental data from patent US6589937B1, “Peptides and nootropic agent” (Kabushiki Kaisha Yakult Honsha, priority 1996, dated 2003).
Where a SMILES comes first, the peptide text is derived from it. [ ]: non-standard residue; d: D form. The star is where a group is joined. X1 = N=C(N)NCCC[C@H](N)C(=O)N[C@@H](Cc1c[nH]cn1)C(=O)N1CCC[C@H]1C(=O)N[C@@H](CS*)C(=O)O; pGlu = O=C1CC[C@@H](C(=O)O)N1

Columns and labels:
[1] = Evaluation of brain transition (CNS distribution after i.v. administration); details: mouse, in vivo, iv
Experimental: C-AVP 4-9-000 (389 Ci/mmol) labeled with ^125I by the chloramine-T method was administered (i.v.) to mice in 1 μCi, ^125I-C-AVP 4-9-000 in plasma was quantitated by separating the methanol extract using Radio-HPLC.
In the case of AS22, the radioactivity contained in the trifluoroacetic acid precipitate fraction was made the ^125I-AS22 amount. Further, ^125I-C-AVP 4-9-000 was quantitated by separating the methanol extract using Radio-HPLC.

[2] = type: in vitro ADME, rat
Experimental: C-AVP 4-9 series compound can be hydrolyzed in brain by the action of prolyl endopeptidase, and it is considered that they are converted to AVP 4-9.
Therefore, 500 μM of C-AVP 4-9-000 were incubated (6 hr., 37° C.) with a rat cerebral homogenate (100 μg/rat) in the presence or in the absence of carbobenzoyloxy prolyl-prolinal (ZPP, 20 μM) as known as a potent inhibitor for propyl endopeptitase. After incubation metabolites were extracted with methanol. The metabolites were analyzed by HPLC. Further, ZPP is a specific inhibitor for prolyl endopeptidase. After methanol extraction, the metabolites were quantitated by the separation with HPLC.

[3] = PI value by isoelectrofocusing (capillary electrophoresis); type: physicochemical; details: peptide 5 μg, UV 214 nm
Experimental: Further, the PI value was analyzed by the isoelectrofocusing method for the peptide 5 μg using a capillary electrophoretic apparatus (Beckman P/ACE 5000) and an isoelectrofocusing kit (eCAP 3-10, Beckman). The detection was carried out by UV 214 nm.

rats = assay: Passive avoidance test, administration 180 min before retention test; type: in vivo; details: rat, s.c., administered 3 hr before retention test
Experimental: The test solution in which each of these test drugs dissolved in saline was subcutaneously administered to rats. As to animals, male Wister rats (aged 7-9 weeks) were bought from Japan Charles River (JCR) and used after the preliminary feeding for more than one week. At the time of the preliminary feeding it lighted up from AM 8.00 to PM 8.00.
It was carried out by partially modifying the method of Ader R. R. (Psycon. Sci., 26, p125-128, 1972). Namely, rats were let stay in a light room of the passive avoidance test apparatus consisting of a light and dark rooms, and were let move freely for 2 min. After 45 min., the rats were let stay again in the light room. When the rats went into the dark room, the electric current 0.3 mA was applied for 30 sec. by Muromachikikai SGS-002 on the floor of the dark room. Further, in all processes of the experiment the rats were let move freely between the dark room and the light room. Each peptide was subcutaneously administered at 23 hr. (1 hr. before the retention test) after the electric shock. Subsequently, the rats were let stay in the light room after 1 hr. (24 hr. after the electric shock), the time (latency) when the rats went into the dark room was measured (retention test).
The test was carried out according to the test 2 except that the administration of the test solution was made at 21 hr. […]

formation of AVP 4-9 after 6 hour's incubation [2] | parent remaining after 6 hour's incubation ([2]; rat, brain homogenate, 6 h) | Molecule | transition into brain [1] | PI values [3] | effectiveness in passive avoidance (latency) (rats)
the formation of AVP 4-9 was observed | scarcely remained | N=C(N)NCCC[C@H](NC(=O)[C@@H]1CCCN1C(=O)[C@H](CSSC[C@H](NC(=O)[C@@H]1CCCN1C(=O)[C@H](Cc1c[nH]cn1)NC(=O)[C@@H](N)CCCNC(=N)N)C(=O)O)NC(=O)[C@H](CC(N)=O)NC(=O)[C@@H]1CCC(=O)N1)C(=O)NCC(N)=O [C-AVP 4-9-000] ([pGlu]NC(X1)PRG-NH2) | transited into brain in a sufficient concentration | – | –
– | – | pGlu-Asn-Cys-Pro-Arg-Gly-NH2 ([pGlu]NCPRG-NH2) [AVP 4-9, 4-9 fragment of arginine vasopressin, control drug] | – | 9.27 | did not show any significant effectiveness
